Holding throughout (type): biochemical
The target of one assay is T1, sucrase (Homo sapiens, UniProt P14410).
T1 construct: suspending small intestinal brush border membrane vesicles in 0.1 M maleic acid buffer (pH 6.0); from tissue; host or cells: small intestinal brush border membrane vesicles
As to the kind of experiment: α-glycosidase-inhibiting activity, sucrase (small intestinal brush border membrane vesicles). Conditions: substrate sucrose (74 mM), 0.1 M maleic acid buffer pH 6.0, 37° C., 30 minutes, glucose-oxidase method. The method, then:
(§1) The compounds (6a), (6b), (6c) and (6d), each prepared by Example 25, as well as the compound (6g) prepared by Example 27 were each measured for α-glycosidase-inhibiting activity. […] To each of sucrose (74 mM), maltose (74 mM) and isomaltose (74 mM) solution as a substrate, there was added a solution (0.05 ml) of a test compound in various concentrations, and the resulting mixture was pre-heated at 37° C. for 2 to 3 minutes, followed by addition of an enzyme solution and reaction for 30 minutes. Thereafter, water was added and the resulting mixture was heated in a boiling water bath for 2 minutes in order to inactivate the enzyme. Separately, the enzyme solution was added to each of the test solutions and immediately thereafter heated in boiling water bath for 2 minutes to inactivate the enzyme. This solution was used as a blank. The amount of […] D-glucose was measured in accordance with glucose-oxidase method. The substrate and test compounds were used in a solution of 0.1 M maleic acid buffer (pH 6.0). A 50% inhibitory concentration (IC50) was calculated from the value observed.

Another assay addresses maltase. Kind of assay: α-glycosidase-inhibiting activity, maltase (small intestinal brush border membrane vesicles). Conditions: substrate maltose (74 mM), 0.1 M maleic acid buffer pH 6.0, 37° C., 30 minutes, glucose-oxidase method. The method, then: as §1
The next assay has as its target T2, isomaltase (Homo sapiens, UniProt P14410).
T2 construct: suspending small intestinal brush border membrane vesicles in 0.1 M maleic acid buffer (pH 6.0); from tissue; host or cells: small intestinal brush border membrane vesicles
As to the kind of experiment: α-glycosidase-inhibiting activity, isomaltase (small intestinal brush border membrane vesicles). Conditions: substrate isomaltose (74 mM), 0.1 M maleic acid buffer pH 6.0, 37° C., 30 minutes, glucose-oxidase method. The method, then: as §1

Values after ≈ are worked out from the molar mass of the structure shown.

T1 sequence (P14410 whole entry, species assumed): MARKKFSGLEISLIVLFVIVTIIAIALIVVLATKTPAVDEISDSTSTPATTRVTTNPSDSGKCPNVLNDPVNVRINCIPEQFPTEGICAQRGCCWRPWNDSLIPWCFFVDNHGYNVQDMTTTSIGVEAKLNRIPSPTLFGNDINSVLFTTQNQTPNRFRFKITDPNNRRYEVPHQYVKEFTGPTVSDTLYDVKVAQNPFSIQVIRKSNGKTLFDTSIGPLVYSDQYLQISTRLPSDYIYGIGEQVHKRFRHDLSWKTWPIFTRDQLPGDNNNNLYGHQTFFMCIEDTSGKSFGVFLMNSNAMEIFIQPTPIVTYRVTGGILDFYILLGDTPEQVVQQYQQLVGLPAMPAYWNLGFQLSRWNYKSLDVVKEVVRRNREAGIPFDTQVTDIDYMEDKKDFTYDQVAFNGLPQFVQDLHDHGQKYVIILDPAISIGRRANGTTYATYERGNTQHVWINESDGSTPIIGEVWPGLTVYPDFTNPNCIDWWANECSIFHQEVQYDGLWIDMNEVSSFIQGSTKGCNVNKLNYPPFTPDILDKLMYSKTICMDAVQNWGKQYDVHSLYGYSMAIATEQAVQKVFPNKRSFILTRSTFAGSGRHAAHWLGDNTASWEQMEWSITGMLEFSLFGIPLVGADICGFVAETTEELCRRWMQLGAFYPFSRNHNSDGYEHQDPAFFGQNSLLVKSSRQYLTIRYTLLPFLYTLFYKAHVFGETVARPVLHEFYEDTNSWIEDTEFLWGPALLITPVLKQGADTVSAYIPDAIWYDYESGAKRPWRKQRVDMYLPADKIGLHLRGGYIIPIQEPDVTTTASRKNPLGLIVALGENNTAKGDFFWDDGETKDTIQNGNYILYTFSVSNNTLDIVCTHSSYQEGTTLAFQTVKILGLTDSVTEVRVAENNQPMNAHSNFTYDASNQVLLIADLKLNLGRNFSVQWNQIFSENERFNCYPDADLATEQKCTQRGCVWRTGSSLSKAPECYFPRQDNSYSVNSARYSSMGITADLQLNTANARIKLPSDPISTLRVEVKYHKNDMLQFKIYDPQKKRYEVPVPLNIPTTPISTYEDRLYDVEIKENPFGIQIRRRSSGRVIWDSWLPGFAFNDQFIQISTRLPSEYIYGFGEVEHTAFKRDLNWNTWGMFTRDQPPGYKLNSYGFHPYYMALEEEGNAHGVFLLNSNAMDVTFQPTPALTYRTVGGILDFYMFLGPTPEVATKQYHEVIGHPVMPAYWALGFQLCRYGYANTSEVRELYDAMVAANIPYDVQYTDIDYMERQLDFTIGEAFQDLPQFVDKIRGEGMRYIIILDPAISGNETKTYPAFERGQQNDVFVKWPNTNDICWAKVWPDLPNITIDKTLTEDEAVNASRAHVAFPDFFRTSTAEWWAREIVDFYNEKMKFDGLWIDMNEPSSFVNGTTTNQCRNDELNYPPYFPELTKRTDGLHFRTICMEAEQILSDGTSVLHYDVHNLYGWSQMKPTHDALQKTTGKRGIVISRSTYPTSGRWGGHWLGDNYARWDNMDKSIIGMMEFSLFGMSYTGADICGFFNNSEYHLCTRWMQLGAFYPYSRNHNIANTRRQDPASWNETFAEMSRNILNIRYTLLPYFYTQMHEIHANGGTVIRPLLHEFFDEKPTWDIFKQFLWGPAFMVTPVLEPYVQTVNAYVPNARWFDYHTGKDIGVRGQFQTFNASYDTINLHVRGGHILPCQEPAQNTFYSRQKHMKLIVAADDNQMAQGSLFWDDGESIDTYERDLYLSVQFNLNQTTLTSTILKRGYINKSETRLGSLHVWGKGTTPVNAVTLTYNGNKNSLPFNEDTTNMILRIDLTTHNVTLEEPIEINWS
T2 sequence (P14410 whole entry, species assumed): as above

As to `O=S(=O)([O-])OC(C(O)C[S+]1CC(O)C(O)C1CO)C(O)C(O)C(O)CO` (single isomer, unassigned) [Compound (6a)], the IC50 against sucrase was 66.9 µM; on isomaltase, 1.63 µM. Also, at maltase, the “IC50, maltase” value is 20.6 µg/mL (≈ 48.5 µM).

Consider `O=S(=O)([O-])OC(C(O)C[S+]1CC(O)C(O)C1CO)C(O)C(O)C(O)CO` (single isomer, unassigned) [Compound (6b)], for which the IC50 against sucrase is 136 µM; at isomaltase, 10.8 µM. For the same compound, on maltase, the “IC50, maltase” value was above 100 µg/mL.

Take `O=S(=O)([O-])OC(C(O)C[S+]1CC(O)C(O)C1CO)C(O)C(O)C(O)CO` (single isomer, unassigned) [Compound (6d)]: the IC50 was 32.3 µM against sucrase and 6.53 µM against isomaltase. The “IC50, maltase” value on maltase turned out to be 24.8 µg/mL (≈ 58.4 µM).

On to `O=S(=O)([O-])OC(C(O)C[S+]1CC(O)C(O)C1CO)C(O)C(O)C(O)CO` (single isomer, unassigned) [Compound (6g)], for which the values for the IC50 on sucrase and at isomaltase were above 236 µM and 158 µM, respectively. Moreover, on maltase, the “IC50, maltase” value is above 100 µg/mL.

With `O=S(=O)([O-])OC(C(O)C[S+]1CC(O)C(O)C1CO)C(O)C(O)C(O)CO` (single isomer, unassigned) [kotalanol, reference compound], the IC50 is 0.754 µM against sucrase and 5.68 µM against isomaltase. Moreover, the “IC50, maltase” value on maltase was 3.07 µg/mL (≈ 7.23 µM).

Take `O=S(=O)([O-])OC(C(O)C[S+]1CC(O)C(O)C1CO)C(O)C(O)C(O)CO` (stereo not drawn) [Compound (6c)]: the IC50 at sucrase is 214 µM; against isomaltase, 16.2 µM. In addition, at maltase, the “IC50, maltase” value is above 100 µg/mL.

As usually defined, the IC50 is the midpoint of a concentration-inhibition curve.

(Values after patent US20100063302A1, “CYCLIC SULFONIUM SALT, METHOD FOR PRODUCTION OF CYCLIC SULFONIUM SALT, AND GLYCOSIDASE INHIBITOR” (Takano Co., Ltd., priority 2007, published 2010).)
